According to ChEMBL document CHEMBL2021798, “Discovery of new quinoline ether inhibitors with high affinity and selectivity for PDGFR tyrosine kinases” (Bioorg Med Chem Lett, 2012):

Tests used:
[1] = test system: Rattus norvegicus; experiment: Volume of distribution at steady state in rat at 20 mg/kg, po; assay type: ADME, organism-based; design: dose 20 mg/kg, route oral; conditions: in vivo
[2] = Terminal half life in rat at 20 mg/kg, iv; assay type: ADME, organism-based; design: dose 20 mg/kg, route intravenous; conditions: in vivo, read-out: beta t1/2 (converted)
[3] = Clearance in dog at 20 mg/kg, po; assay type: ADME, organism-based, Canis lupus familiaris; design: dose 20 mg/kg, route oral; conditions: in vivo
[4] = test system: Canis familiaris; experiment: Volume of distribution at steady state in dog at 20 mg/kg, po; assay type: ADME, organism-based, Canis lupus familiaris; design: dose 20 mg/kg, route oral; conditions: in vivo
[5] = Terminal half life in dog at 20 mg/kg, iv; assay type: ADME, organism-based, Canis lupus familiaris; design: dose 20 mg/kg, route intravenous; conditions: in vivo, read-out: beta t1/2 (converted)
[6] = Clearance in rat at 3 mg/kg, po; assay type: ADME, organism-based; design: dose 3 mg/kg, route oral; conditions: in vivo
[7] = test system: Rattus norvegicus; experiment: Volume of distribution at steady state in rat at 3 mg/kg, po; assay type: ADME, organism-based; design: dose 3 mg/kg, route oral; conditions: in vivo
[8] = Terminal half life in rat at 3 mg/kg, iv; assay type: ADME, organism-based; design: dose 3 mg/kg, route intravenous; conditions: in vivo, read-out: beta t1/2 (converted)
[9] = Oral bioavailability in rat at 3 mg/kg; assay type: ADME, organism-based; conditions: in vivo
[10] = Clearance in dog at 3 mg/kg, po; assay type: ADME, organism-based, Canis lupus familiaris; design: dose 3 mg/kg, route oral; conditions: in vivo
[11] = test system: Canis familiaris; experiment: Volume of distribution at steady state in dog at 3 mg/kg, po; assay type: ADME, organism-based, Canis lupus familiaris; design: dose 3 mg/kg, route oral; conditions: in vivo
[12] = Terminal half life in dog at 3 mg/kg, iv; assay type: ADME, organism-based, Canis lupus familiaris; design: dose 3 mg/kg, route intravenous; conditions: in vivo, read-out: beta t1/2 (converted)
[13] = Oral bioavailability in dog at 3 mg/kg; assay type: ADME, organism-based, Canis lupus familiaris; conditions: in vivo
[14] = Dissociation constant, pKa of the compound; assay type: physicochemical
[15] = Lipophilicity, log D of the compound; assay type: physicochemical; conditions: octanol/water
[16] = Clearance in rat at 20 mg/kg, po; assay type: ADME, organism-based; design: dose 20 mg/kg, route oral; conditions: in vivo
[17] = Oral bioavailability in rat at 20 mg/kg; assay type: ADME, organism-based; conditions: in vivo
[18] = Oral bioavailability in dog at 20 mg/kg; assay type: ADME, organism-based, Canis lupus familiaris; conditions: in vivo

Vdss [1] | half-life [2] | CL/F [3] | Vdss [4] | half-life [5] | CL/F [6] | Vdss [7] | half-life [8] | bioavailability [9] | CL/F [10] | Vdss [11] | half-life [12] | bioavailability [13] | pKa [14] | logD [15] | CL/F [16] | bioavailability [17] | bioavailability [18] | Structure (SMILES)
0.7 L/kg | 3.7 h | 0.144 L/h/kg | 1.4 L/kg | 8.6 h | – | – | – | – | – | – | – | – | – | – | – | – | – | COc1ccc2c(Oc3ccc(CC(=O)Nc4cn(C)nc4C)c(OC)c3)ccnc2c1
– | – | – | – | – | 0.54 L/h/kg | 0.7 L/kg | 1.6 h | 43% | 0.69 L/h/kg | 2 L/kg | 3.4 h | 100% | 6 | 3.3 | – | – | – | CCOc1cc2nccc(Oc3cnc(CC(=O)Nc4n[nH]c(CC)c4C)c(OC)c3)c2cc1OC
0.7 L/kg | 3.7 h | 0.15 L/h/kg | 1.8 L/kg | 10.6 h | – | – | – | – | – | – | – | – | 6.3 | 3.5 | 0.342 L/h/kg | 78% | 59% | COc1ccc2c(Oc3ccc(CC(=O)Nc4cn(C)nc4C)c(OC)c3)ccnc2c1.O=S(=O)(O)O
